Measurements as given in US6127136A, “Detection of dioxin-like compounds by detection of transformed Ah receptor/ARNT complex” (Paracelsian, Inc., priority 1996, dated 2000).

Assays:
[1] = molecular target: T1, transformed Ah receptor/ARNT complex (Cavia porcellus, UniProt Q6J287); test: Ah-ELISA, cytosol volume, time and temperature optimization; type: biochemical, guinea pig (hepatic cytosol); parameters: from tissue; host or cells: hepatic cytosol of male Hartley guinea pigs (animals from Cornell Research Animal Resources)
T1 sequence (Q6J287 1-846): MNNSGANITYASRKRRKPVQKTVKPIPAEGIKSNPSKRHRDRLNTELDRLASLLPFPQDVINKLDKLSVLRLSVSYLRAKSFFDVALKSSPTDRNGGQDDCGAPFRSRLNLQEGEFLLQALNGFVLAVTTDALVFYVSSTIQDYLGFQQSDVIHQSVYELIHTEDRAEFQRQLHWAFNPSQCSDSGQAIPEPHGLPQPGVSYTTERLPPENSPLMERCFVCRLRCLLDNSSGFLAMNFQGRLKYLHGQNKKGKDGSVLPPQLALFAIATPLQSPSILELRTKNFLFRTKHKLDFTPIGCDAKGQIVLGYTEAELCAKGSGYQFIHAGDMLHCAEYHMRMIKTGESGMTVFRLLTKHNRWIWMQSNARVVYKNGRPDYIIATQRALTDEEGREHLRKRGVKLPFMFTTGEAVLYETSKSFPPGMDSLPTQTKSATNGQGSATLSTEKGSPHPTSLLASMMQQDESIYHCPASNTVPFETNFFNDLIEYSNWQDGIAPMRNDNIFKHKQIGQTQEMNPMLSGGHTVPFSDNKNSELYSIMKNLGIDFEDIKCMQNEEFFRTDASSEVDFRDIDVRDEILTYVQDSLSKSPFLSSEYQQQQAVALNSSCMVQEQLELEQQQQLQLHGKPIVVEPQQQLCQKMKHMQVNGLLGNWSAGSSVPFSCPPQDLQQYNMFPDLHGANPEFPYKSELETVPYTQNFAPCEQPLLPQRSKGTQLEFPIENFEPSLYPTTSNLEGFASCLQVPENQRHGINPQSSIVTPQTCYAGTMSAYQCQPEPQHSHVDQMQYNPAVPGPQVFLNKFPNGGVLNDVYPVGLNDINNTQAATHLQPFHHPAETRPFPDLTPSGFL
T1 sequence (Q0WXX3 1-790 partner): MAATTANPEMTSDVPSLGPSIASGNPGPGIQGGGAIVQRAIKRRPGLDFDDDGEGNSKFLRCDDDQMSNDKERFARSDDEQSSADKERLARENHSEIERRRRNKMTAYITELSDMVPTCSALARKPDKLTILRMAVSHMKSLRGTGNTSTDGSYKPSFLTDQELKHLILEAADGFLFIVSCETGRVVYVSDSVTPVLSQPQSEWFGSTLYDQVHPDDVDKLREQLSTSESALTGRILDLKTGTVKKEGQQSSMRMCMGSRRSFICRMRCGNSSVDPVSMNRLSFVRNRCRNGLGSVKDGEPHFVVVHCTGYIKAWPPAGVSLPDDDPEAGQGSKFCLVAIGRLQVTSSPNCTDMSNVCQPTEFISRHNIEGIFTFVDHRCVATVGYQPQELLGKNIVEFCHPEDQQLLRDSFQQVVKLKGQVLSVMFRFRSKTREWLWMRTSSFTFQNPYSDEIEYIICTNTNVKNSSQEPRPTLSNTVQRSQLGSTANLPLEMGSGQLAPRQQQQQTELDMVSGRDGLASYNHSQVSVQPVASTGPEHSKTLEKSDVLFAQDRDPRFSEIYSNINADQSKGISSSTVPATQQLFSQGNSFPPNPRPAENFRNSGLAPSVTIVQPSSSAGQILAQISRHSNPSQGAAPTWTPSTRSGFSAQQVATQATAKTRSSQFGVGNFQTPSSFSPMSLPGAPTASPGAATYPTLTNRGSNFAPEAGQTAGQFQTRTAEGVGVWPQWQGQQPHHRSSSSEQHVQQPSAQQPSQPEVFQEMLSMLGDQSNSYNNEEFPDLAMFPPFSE
Method: The reagents and ELISA plate were prepared as described in Example 8. The volume of cytosol, temperature of cytosol incubation and time of incubation were all varied independently. The test volume of cytosol was varied between 50 and 200 μl at 50 μl increments. […] The assay was with a cytosol incubation varying between 30 and 120 minutes at 30 minute increments.

[2] = molecular target: T1, transformed Ah receptor/ARNT complex; test: Ah-ELISA, optimization of salt concentration; type: biochemical, guinea pig (hepatic cytosol); parameters: from tissue; host or cells: hepatic cytosol of male Hartley guinea pigs (animals from Cornell Research Animal Resources)
Method: The reagents and ELISA plate were prepared as described in Example 7, except the anti-Rabbit/alkaline phosphatase (Sigma, St. Louis, Mo.) was prepared to make a 1:4000 dilution. The final DRE dilution was 31.2 pmol per well. The final dilution of anti-ARNT was 0.275 ug per mL. The DRE was 1/32 of the highest dilution, which corresponds to a final dilution of 0.25 nmol/uL hybridized DRE x 10.6 uL DRE/1700 uL cytosol or 31.2 pmol per well. All other concentrations were the same. All assays were run at approximately 30° C.
The salt concentration during cytosol incubation was varied from 150 mM to 255 mM NaCl at 15 mM increments with a 0 mM NaCl control for with either DMSO or TCDD to determine the effect of salt concentration on background detection. Thus, the assay was run on samples with DMSO (-) or TCDD (+) added at the concentrations taught in Example 7.

SMILES: Clc1cc2c(cc1Cl)Oc1cc(Cl)c(Cl)cc1O2 [TCDD, 2,3,7,8-tetrachlorodibenzo-p-dioxin]
- ave(+)-BG ([1]; 50 uL, 120 min, 30 C): 1006
- difference ([1]; 50 uL, 120 min, 30 C): 984
- ave(+)-BG ([1]; 100 uL, 120 min, 30 C): 1463
- difference ([1]; 100 uL, 120 min, 30 C): 1430
- ave(+)-BG ([1]; 150 uL, 120 min, 30 C): 1910
- difference ([1]; 150 uL, 120 min, 30 C): 1867
- ave(+)-BG ([1]; 200 uL, 30 min, 30 C): 394
- difference ([1]; 200 uL, 30 min, 30 C): 359
- ave(+)-BG ([1]; 200 uL, 30 min, 38 C): 525
- difference ([1]; 200 uL, 30 min, 38 C): 497
- ave(+)-BG ([1]; 200 uL, 60 min, 30 C): 1324
- difference ([1]; 200 uL, 60 min, 30 C): 1288
- ave(+)-BG ([1]; 200 uL, 90 min, 30 C): 1882
- difference ([1]; 200 uL, 90 min, 30 C): 1839
- ave(+)-BG ([1]; 200 uL, 120 min, 22 C): 1924
- difference ([1]; 200 uL, 120 min, 22 C): 1863
- ave(+)-BG ([1]; 200 uL, 120 min, 30 C): 2369
- difference ([1]; 200 uL, 120 min, 30 C): 2324
- ave(+)-BG ([1]; 200 uL, 120 min, 35 C): 959
- difference ([1]; 200 uL, 120 min, 35 C): 898
- DIFF ([2]; 0 mM NaCl): 1879
- RATIO ([2]; 0 mM NaCl): 6.298
- ELISA signal (+) ([2]; 0 mM NaCl, TCDD (+)): 2233
- DIFF ([2]; 150 mM NaCl): 2587
- RATIO ([2]; 150 mM NaCl): 18.03
- ELISA signal (+) ([2]; 150 mM NaCl, TCDD (+)): 2739
- DIFF ([2]; 165 mM NaCl): 2625
- RATIO ([2]; 165 mM NaCl): 21
- ELISA signal (+) ([2]; 165 mM NaCl, TCDD (+)): 2756
- DIFF ([2]; 180 mM NaCl): 2661
- RATIO ([2]; 180 mM NaCl): 25.96
- ELISA signal (+) ([2]; 180 mM NaCl, TCDD (+)): 2767
- DIFF ([2]; 195 mM NaCl): 2609
- RATIO ([2]; 195 mM NaCl): 26.35
- ELISA signal (+) ([2]; 195 mM NaCl, TCDD (+)): 2712
- DIFF ([2]; 210 mM NaCl): 2215
- RATIO ([2]; 210 mM NaCl): 26.29
- ELISA signal (+) ([2]; 210 mM NaCl, TCDD (+)): 2303
- DIFF ([2]; 225 mM NaCl): 1697
- RATIO ([2]; 225 mM NaCl): 21.89
- ELISA signal (+) ([2]; 225 mM NaCl, TCDD (+)): 1779
- DIFF ([2]; 240 mM NaCl): 1333
- RATIO ([2]; 240 mM NaCl): 16.76
- ELISA signal (+) ([2]; 240 mM NaCl, TCDD (+)): 1418
- DIFF ([2]; 255 mM NaCl): 1109
- RATIO ([2]; 255 mM NaCl): 12.07
- ELISA signal (+) ([2]; 255 mM NaCl, TCDD (+)): 1210
- DIFF ([2]; column S9): 86.67
- RATIO ([2]; column S9): 1.667
- ELISA signal (+) ([2]; column S9, TCDD (+)): 216.6
- salt concentration giving best ratio of background to detection of TCDD ([2]; during cytosol incubation): 180-195 mM NaCl
